According to patent US10221172B2, “Benzothiazole and benzisothiazole-substituted compounds as mGluR4 allosteric potentiators, compositions, and methods of treating neurological dysfunction” (Vanderbilt University, priority 2015, dated 2019):

Target: human mGluR4 (Homo sapiens (Human), UniProt Q14833)
Assay: mGluR4 potentiation assay, CHO cells transfected with human mGluR4, Ca2+-sensitive dye, EC20 agonist
Assay type: cell-based
Details: potentiation of mGluR4
Protocol: The disclosed compounds and compositions can be evaluated for their ability to act as a potentiator of metabotropic glutamate receptor activity, in particular mGluR4 activity, by any suitable known methodology known in the art. For example, Chinese Hamster Ovary (CHO) cells transfected with human mGluR4 or HEK cells co-transfected with rat mGluR4 and the G-protein regulated Inwardly Rectifying Potassium channel (GIRK) were plated in clear bottom assay plates for assay in a Hamamatsu FDSS Fluorometric Plate Reader. The cells were loaded with either a Ca2+-sensitive fluorescent dye or the thallium responsive dye and the plates were washed and placed into a suitable kinetic plate reader. For human mGluR4 assays, a fluorescence baseline was established for 3-5 seconds, the disclosed compounds were then added to the cells, and the response in cells was measured. Approximately two and a half minutes later, a concentration of mGluR4 orthosteric agonist (e.g. glutamate or L-AP4) eliciting approximately 20% (EC20) of the maximal agonist response was added to the cells, and the response was measured. Two minutes later, a concentration of mGluR4 agonist (e.g. glutamate or L-AP4) eliciting 80% (EC80) of the maximal agonist response was added to the cells, and the response was measured. For rat mGluR4/GIRK experiments, a baseline was established for approximately five seconds, disclosed compounds were added, and either an EC20 or EC80 concentration of agonist was added approximately two and one half minutes later. Potentiation of the agonist response of mGluR4 by the disclosed compounds was observed as an increase in response to the EC20 concentration of agonist in the presence of compound compared to the response to agonist in the absence of compound. Similarly, antagonism of the agonist response of mGluR4 by the disclosed compounds was observed as a decrease in response to the EC80 concentration of agonist in the presence of compound compared to the response to agonist in the absence of compound.
The above described assay operated in two modes. In the first mode, a range of concentrations of the disclosed compounds are added to cells, followed by a single fixed concentration of agonist. If the compound acts as a potentiatior, an EC50 value for potentiation and a maximum extent of potentiation by the compound at this concentration of agonist is determined by non-linear curve fitting. If the compound acts as a noncompetitive antagonist, an IC50 value is determined by non-linear curve fitting. In the second mode, several fixed concentrations of the disclosed compounds are added to various wells on a plate, followed by a range in concentrations of agonist for each concentration of disclosed compound. The EC50 values for the agonist at each concentration of compound are determined by non-linear curve fitting. A decrease in the EC50 value of the agonist with increasing concentrations of the sample compound (a leftward shift of the agonist concentration-response curve) is an indication of the degree of mGluR4 potentiation at a given concentration of the sample compound. A decrease in the maximal response of the agonist with increasing concentrations of the sample compounds, with or without a rightward shift in agonist potency, is an indication of the degree of noncompetitive antagonism at mGluR4. The second mode also indicates whether the sample compounds also affect the maximum response to mGluR4 to agonists.

[1] = main compound table, species not given
[2] = summary list repeated at the end of the table, species not stated

human mGluR4, sequence (Q14833 33-912): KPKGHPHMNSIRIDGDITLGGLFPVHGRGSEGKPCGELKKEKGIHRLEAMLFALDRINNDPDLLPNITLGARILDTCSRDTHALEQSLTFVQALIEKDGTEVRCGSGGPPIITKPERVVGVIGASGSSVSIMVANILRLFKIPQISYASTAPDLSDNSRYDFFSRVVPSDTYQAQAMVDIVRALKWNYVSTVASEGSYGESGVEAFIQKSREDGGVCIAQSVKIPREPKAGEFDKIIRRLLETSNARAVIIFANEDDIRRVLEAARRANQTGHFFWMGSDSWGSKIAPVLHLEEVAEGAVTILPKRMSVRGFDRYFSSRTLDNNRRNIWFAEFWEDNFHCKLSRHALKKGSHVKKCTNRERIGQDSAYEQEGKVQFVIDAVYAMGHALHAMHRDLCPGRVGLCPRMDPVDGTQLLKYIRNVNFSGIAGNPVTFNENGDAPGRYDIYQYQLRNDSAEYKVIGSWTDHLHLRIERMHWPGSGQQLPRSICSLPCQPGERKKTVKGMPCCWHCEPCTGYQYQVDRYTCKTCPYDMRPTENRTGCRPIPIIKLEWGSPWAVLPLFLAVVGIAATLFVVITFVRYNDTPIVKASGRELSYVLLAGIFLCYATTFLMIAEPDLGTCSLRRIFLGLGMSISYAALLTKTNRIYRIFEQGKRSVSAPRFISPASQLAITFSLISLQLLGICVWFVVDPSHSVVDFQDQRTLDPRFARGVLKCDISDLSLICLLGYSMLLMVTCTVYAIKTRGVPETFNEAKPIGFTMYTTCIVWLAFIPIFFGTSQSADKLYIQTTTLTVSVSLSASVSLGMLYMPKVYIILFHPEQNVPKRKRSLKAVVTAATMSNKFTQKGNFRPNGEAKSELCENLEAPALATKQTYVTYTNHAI

| SMILES | EC50 [1] [nM] | EC50 [2] [nM] |
| --- | --- | --- |
| c1cnc2[nH]nc(Nc3cnc4c(CN5CCOCC5)nsc4c3)c2c1 [Example 55, 3-(morpholinomethyl)-N-(1H-pyrazolo[3,4-b]pyridin-3-yl)isothiazolo[4,5-b] pyridin-6-amine] | 1030 | 1030 |
| O=C(c1nsc2cc(Nc3n[nH]c4cccnc34)ccc12)N1CCS(=O)(=O)CC1 [Example 8, (6-((1H-pyrazolo [4,3-b]pyridin-3-yl)amino)benzo[d]isothiazol-3-yl)(1,1-dioxido-thiomorpholino) methanone] | 136 | 136 |
| Cc1nsc2cc(Nc3n[nH]c4ncccc34)cnc12 [Example 48, 3-methyl-N-(1H-pyrazolo [3,4-b]pyridin-3-yl)isothiazolo[4,5-b] pyridin-6-amine] | 180 | 180 |
| CC(=O)N1CCC(c2nsc3cc(Nc4n[nH]c5cccnc45)ccc23)CC1 [Example 35, 1-(4-(6-((1H-pyrazolo[4,3-b]pyridin-3-yl)amino)benzo[d]isothiazol-3-yl)piperidin-1-yl)ethan-1-one] | 199 | 199 |
| O=C(C1CCOCC1)N1CCC(c2nsc3cc(Nc4n[nH]c5cccnc45)ccc23)CC1 [Example 72, (4-(6-((1H-pyrazolo [4,3-b]pyridin-3-yl)amino)benzo[d]isothiazol-3-yl)piperidin-1-yl) (tetrahydro-2H-pyran-4-yl)methanone] | 1200 | 1200 |
| OCc1nsc2cc(Nc3n[nH]c4cccnc34)cnc12 [Example 47, (6-((1H-pyrazolo[4,3-b]pyridin-3-yl)amino)isothiazolo[4,5-b]pyridin-3-yl)methanol] | 1060 | 1060 |
| FC1(F)CCCN(Cc2nsc3cc(Nc4n[nH]c5ncccc45)cnc23)C1 [Example 62, 3-((3,3-difluoropiperidin-1-yl)methyl)-N-(1H-pyrazolo[3,4-b]pyridin-3-yl)isothiazolo[4,5-b] pyridin-6-amine] | 101 | 101 |
| c1cnc2c(Nc3ccc4c(C5CC5)nsc4c3)n[nH]c2n1 [Example 37, 3-cyclopropyl-N-(1H-pyrazolo [3,4-b]pyrazin-3-yl)benzo [d]isothiazol-6-amine] | 61.1 | 61.1 |
| CC(C)(C)C1CCN(Cc2nsc3cc(Nc4n[nH]c5cccnc45)cnc23)CC1 [Example 56, 3-((4-(tert-butyl)piperidin-1-yl)methyl)-N-(1H-pyrazolo[4,3-b]pyridin-3-yl)isothiazolo[4,5-b] pyridin-6-amine] | 1390 | 1390 |
| CN1CCN(C(=O)c2nsc3cc(Nc4n[nH]c5nccnc45)ccc23)CC1=O [Example 32, 4-(6-((1H-pyrazolo[3,4-b]pyrazin-3-yl)amino)benzo [d]isothiazole-3-carbonyl)-1-methylpiperazin-2-one] | 1530 | 1530 |
| O=C(c1nsc2cc(Nc3n[nH]c4nccnc34)ccc12)N1CCC(F)(F)CC1 [Example 33, (6-((1H-pyrazolo[3,4-b]pyrazin-3-yl)amino)benzo[d]isothiazol-3-yl)(4,4-difluoropiperidin-1-yl) methanone] | 827 | 827 |
| FC1(F)CCCN(Cc2nsc3cc(Nc4n[nH]c5cccnc45)cnc23)C1 [Example 61, 3-((3,3-difluoropiperidin-1-yl)methyl)-N-(1H-pyrazolo[4,3-b]pyridin-3-yl)isothiazolo[4,5-b] pyridin-6-amine] | 55.9 | 55.9 |
| CC(=O)N1CCC(c2nsc3cc(Nc4n[nH]c5nccnc45)ccc23)CC1 [Example 63, 1-(4-(6-((1H-pyrazolo [3,4-b]pyrazin-3-yl)amino)benzo[d]isothiazol-3-yl)piperidin-1-yl)ethan-1-one] | 154 | 154 |
| c1cnc2c(Nc3cnc4c(CN5CCOCC5)nsc4c3)n[nH]c2c1 [Example 54, 3-(morpholinomethyl)-N-(1H-pyrazolo[4,3-b]pyridin-3-yl)isothiazolo[4,5-b] pyridin-6-amine] | 630 | 630 |
| CC(C)(C)Cc1nsc2cc(Nc3n[nH]c4cccnc34)ccc12 [Example 2, 3-neopentyl-N-(1H-pyrazolo[4,3-b]pyridin-3-yl)benzo[d] isothiazol-6-amine] | 284 | 284 |
| CN1CCC2(CCN(C(=O)c3nsc4cc(Nc5n[nH]c6nccnc56)ccc34)CC2)C1=O [Example 31, 8-(6-((1H-pyrazolo[3,4-b]pyrazin-3-yl)amino)benzo[d]isothiazole-3-carbonyl)-2-methyl-2,8-diazaspiro[4.5]decan-1-one] | 1210 | 1210 |
| CCCc1nsc2cc(Nc3n[nH]c4ncccc34)ccc12 [Example 26, 3-propyl-N-(1H-pyrazolo[3,4-b]pyridin-3-yl)benzo[d]isothiazol-6-amine] | 220 | 220 |
| CC(C)(C)Cc1nsc2cc(Nc3n[nH]c4ncccc34)cnc12 [Example 28, 3-neopentyl-N-(1H-pyrazolo[3,4-b]pyridin-3-yl) isothiazolo[4,5-b] pyridin-6-amine] | 119 | 119 |
| Cc1nsc2ccc(Nc3n[nH]c4cccnc34)cc12 [Example 1, 3-methyl-N-(1H-pyrazolo[4,3-b]pyridin-3-yl)benzo[d]isothiazol-5-amine] | 187 | 187 |
| CC1CCN(C(=O)c2nsc3cc(Nc4n[nH]c5cccnc45)ccc23)CC1 [Example 19, (6-((1H-pyrazolo [4,3-b]pyridin-3-yl)amino)benzo[d]isothiazol-3-yl) (4-methylpiperidin-1-yl)methanone] | 408 | 408 |
| O=C(c1nsc2cc(Nc3n[nH]c4cccnc34)ccc12)N1CCC(N2CCOCC2)C1 (stereo not drawn) [Example 14, (6-((1H-pyrazolo[4,3-b]pyridin-3-yl)amino)benzo[d]isothiazol-3-yl) (3-morpholinopyrrolidin-1-yl)methanone] | 3450 | 3450 |
| CN(Cc1nsc2cc(Nc3n[nH]c4cccnc34)cnc12)C1CC(F)(F)C1 [Example 52, 3-(((3,3-difluoro-cyclobutyl) (methyl)amino)methyl)-N-(1H-pyrazolo[4,3-b]pyridin-3-yl)isothiazolo[4,5-b] pyridin-6-amine] | 334 | 334 |
| CC(C)(C)c1nsc2cc(Nc3n[nH]c4cccnc34)ccc12 [Example 25, 3-(tert-butyl)-N-(1H-pyrazolo[4,3-b]pyridin-3-yl)benzo[d]isothiazol-6-amine] |  | 329 |
| O=C(c1nsc2cc(Nc3n[nH]c4cccnc34)ccc12)N1CCC(F)(F)CC1 [Example 5, (6-((1H-pyrazolo[4,3-b]pyridin-3-yl)amino)benzo[d]isothiazol-3-yl) (4,4-difluoropiperidin-1-yl) methanone] | 60 | 60 |
| CC(C)(O)c1nsc2cc(Nc3n[nH]c4cccnc34)ccc12 [Example 38, 2-(6-((1H-pyrazolo [4,3-b]pyridin-3-yl)amino)benzo[d]isothiazol-3-yl)propan-2-ol] | 1030 | 1030 |
| CCCc1nsc2cc(Nc3n[nH]c4nccnc34)ccc12 [Example 24, 3-propyl-N-(1H-pyrazolo[3,4-b]pyrazine-3-yl)benzo[d]isothiazol-6-amine] | 23.4 | 23.4 |
